Data published in ChEMBL document CHEMBL3885881, “DrugMatrix”.

Species on record: Rattus norvegicus
Experiment: DrugMatrix - Regimen: Daily Repeat
Assay type: toxicity, organism-based, Sprague-Dawley
Parameters: regimen Daily Repeat, gender Male, age 6-8 weeks
Details: in vivo, po, route oral GAVAGE, vehicle .5 % CMC; for ABSOLUTE BASOPHIL / ABSOLUTE EOSINOPHIL / ABSOLUTE LYMPHOCYTE / ABSOLUTE MONOCYTE / ABSOLUTE SEGMENTED NEUTROPHIL / BASOPHIL / EOSINOPHIL / ERYTHROCYTE COUNT / HEMATOCRIT / HEMOGLOBIN / LEUKOCYTE COUNT / LYMPHOCYTE / MEAN CORPUSCULAR HEMOGLOBIN / MEAN CORPUSCULAR HEMOGLOBIN CONCENTRATION / MEAN CORPUSCULAR VOLUME / MONOCYTE / NEUTROPHIL / NUCLEATED RED BLOOD CELLS / PLATELET COUNT: tissue Blood; for ALANINE AMINOTRANSFERASE / ALBUMIN / ALKALINE PHOSPHATASE / ASPARTATE AMINOTRANSFERASE / BLOOD UREA NITROGEN / CARBON DIOXIDE / CHLORIDE / CHOLESTEROL / CREATINE PHOSPHOKINASE / CREATININE / GLUCOSE / LACTATE DEHYDROGENASE / LIPASE / PHOSPHORUS / POTASSIUM / SODIUM / TOTAL BILIRUBIN / TOTAL PROTEIN / URIC ACID: tissue Plasma
[1] = 17 mg/kg, 120 h, dose level Low, time 5 day
[2] = 85 mg/kg, 72 h, dose level High, time 3 day
[3] = 85 mg/kg, 120 h, dose level High, time 5 day

CN1CCN(CCCN2c3ccccc3Sc3ccc(Cl)cc32)CC1 [PROCHLORPERAZINE]
ABSOLUTE BASOPHIL [1]: 0 CELLS/uL
ABSOLUTE EOSINOPHIL [1]: 40 CELLS/uL
ABSOLUTE LYMPHOCYTE [1]: 12867.33 CELLS/uL
ABSOLUTE MONOCYTE [1]: 40 CELLS/uL
ABSOLUTE SEGMENTED NEUTROPHIL [1]: 986 CELLS/uL
BASOPHIL [1]: 0%
EOSINOPHIL [1]: 0.33%
ERYTHROCYTE COUNT [1]: 5.56 x10E6/uL
HEMATOCRIT [1]: 36.13%
HEMOGLOBIN [1]: 14.37 G/DL
LEUKOCYTE COUNT [1]: 13.93 x10E3/uL
LYMPHOCYTE [1]: 92.33%
MEAN CORPUSCULAR HEMOGLOBIN [1]: 25.87 pg
MEAN CORPUSCULAR HEMOGLOBIN CONCENTRATION [1]: 39.77 G/DL
MEAN CORPUSCULAR VOLUME [1]: 65.13 fL
MONOCYTE [1]: 0.33%
NEUTROPHIL [1]: 7%
NUCLEATED RED BLOOD CELLS [1]: 0 /100WBC
PLATELET COUNT [1]: 1289.67 x10E3/uL
ALANINE AMINOTRANSFERASE [1]: 45.33 u/L
ALBUMIN [1]: 4.27 G/DL
ALKALINE PHOSPHATASE [1]: 464.33 u/L
ASPARTATE AMINOTRANSFERASE [1]: 85 u/L
BLOOD UREA NITROGEN [1]: 15.33 mg/dL
CARBON DIOXIDE [1]: 27.33 mmol/L
CHLORIDE [1]: 100.67 MEQ/L
CHOLESTEROL [1]: 75.67 mg/dL
CREATINE PHOSPHOKINASE [1]: 372 u/L
CREATININE [1]: 0.12 mg/dL
GLUCOSE [1]: 141.67 mg/dL
LACTATE DEHYDROGENASE [1]: 401 u/L
LIPASE [1]: 9 u/L
PHOSPHORUS [1]: 12.43 mg/dL
POTASSIUM [1]: 6.4 MEQ/L
SODIUM [1]: 143.33 MEQ/L
TOTAL BILIRUBIN [1]: 0.17 mg/dL
TOTAL PROTEIN [1]: 6.1 G/DL
URIC ACID [1]: 1.33 mg/dL
ABSOLUTE BASOPHIL [2]: 0 CELLS/uL
ABSOLUTE EOSINOPHIL [2]: 81.33 CELLS/uL
ABSOLUTE LYMPHOCYTE [2]: 10099 CELLS/uL
ABSOLUTE MONOCYTE [2]: 0 CELLS/uL
ABSOLUTE SEGMENTED NEUTROPHIL [2]: 453 CELLS/uL
BASOPHIL [2]: 0%
EOSINOPHIL [2]: 0.67%
ERYTHROCYTE COUNT [2]: 6.34 x10E6/uL
HEMATOCRIT [2]: 40.77%
HEMOGLOBIN [2]: 16.03 G/DL
LEUKOCYTE COUNT [2]: 10.63 x10E3/uL
LYMPHOCYTE [2]: 95.33%
MEAN CORPUSCULAR HEMOGLOBIN [2]: 25.3 pg
MEAN CORPUSCULAR HEMOGLOBIN CONCENTRATION [2]: 39.37 G/DL
MEAN CORPUSCULAR VOLUME [2]: 64.3 fL
MONOCYTE [2]: 0%
NEUTROPHIL [2]: 4%
NUCLEATED RED BLOOD CELLS [2]: 1 /100WBC
PLATELET COUNT [2]: 1132 x10E3/uL
ALANINE AMINOTRANSFERASE [2]: 31.33 u/L
ALBUMIN [2]: 4.87 G/DL
ALKALINE PHOSPHATASE [2]: 290 u/L
ASPARTATE AMINOTRANSFERASE [2]: 67.33 u/L
BLOOD UREA NITROGEN [2]: 24 mg/dL
CARBON DIOXIDE [2]: 22.67 mmol/L
CHLORIDE [2]: 108 MEQ/L
CHOLESTEROL [2]: 89 mg/dL
CREATINE PHOSPHOKINASE [2]: 161.33 u/L
CREATININE [2]: 0.2 mg/dL
GLUCOSE [2]: 145.67 mg/dL
LACTATE DEHYDROGENASE [2]: 143.33 u/L
LIPASE [2]: 8 u/L
PHOSPHORUS [2]: 11.93 mg/dL
POTASSIUM [2]: 6.09 MEQ/L
SODIUM [2]: 150.37 MEQ/L
TOTAL BILIRUBIN [2]: 0.2 mg/dL
TOTAL PROTEIN [2]: 7.03 G/DL
URIC ACID [2]: 2.53 mg/dL
ABSOLUTE BASOPHIL [3]: 0 CELLS/uL
ABSOLUTE EOSINOPHIL [3]: 0 CELLS/uL
ABSOLUTE LYMPHOCYTE [3]: 10951.33 CELLS/uL
ABSOLUTE MONOCYTE [3]: 241 CELLS/uL
ABSOLUTE SEGMENTED NEUTROPHIL [3]: 641 CELLS/uL
BASOPHIL [3]: 0%
EOSINOPHIL [3]: 0%
ERYTHROCYTE COUNT [3]: 6.41 x10E6/uL
HEMATOCRIT [3]: 38.7%
HEMOGLOBIN [3]: 15.23 G/DL
LEUKOCYTE COUNT [3]: 11.83 x10E3/uL
LYMPHOCYTE [3]: 92.67%
MEAN CORPUSCULAR HEMOGLOBIN [3]: 23.73 pg
MEAN CORPUSCULAR HEMOGLOBIN CONCENTRATION [3]: 39.33 G/DL
MEAN CORPUSCULAR VOLUME [3]: 60.37 fL
MONOCYTE [3]: 2%
NEUTROPHIL [3]: 5.33%
NUCLEATED RED BLOOD CELLS [3]: 0 /100WBC
PLATELET COUNT [3]: 1133 x10E3/uL
ALANINE AMINOTRANSFERASE [3]: 46.33 u/L
ALBUMIN [3]: 4.37 G/DL
ALKALINE PHOSPHATASE [3]: 354.33 u/L
ASPARTATE AMINOTRANSFERASE [3]: 99.67 u/L
BLOOD UREA NITROGEN [3]: 21.33 mg/dL
CARBON DIOXIDE [3]: 24.67 mmol/L
CHLORIDE [3]: 105.67 MEQ/L
CHOLESTEROL [3]: 84.67 mg/dL
CREATINE PHOSPHOKINASE [3]: 760.33 u/L
CREATININE [3]: 0.23 mg/dL
GLUCOSE [3]: 146 mg/dL
LACTATE DEHYDROGENASE [3]: 421 u/L
LIPASE [3]: 9 u/L
PHOSPHORUS [3]: 11.03 mg/dL
POTASSIUM [3]: 6.4 MEQ/L
SODIUM [3]: 147.97 MEQ/L
TOTAL BILIRUBIN [3]: 0.27 mg/dL
TOTAL PROTEIN [3]: 6.17 G/DL
URIC ACID [3]: 1.8 mg/dL
